Laboratory results from US8273780B2, “Polycyclic antagonists of lysophosphatidic acid receptors” (Amira Pharmaceuticals, Inc., priority 2009, dated 2012).

How the values were obtained:
Human LPA3 = biological target: T1, Human LPA3 (Homo sapiens, UniProt Q9UBY5); assay: LPA3 calcium flux assay; assay type: cell-based; details: CHO cells expressing human LPA3, 10 nM LPA; read-out: HLPA3 Ca Flux IC50
T1 construct: The full-length cDNA fragment for human LPA3 was obtained by PCR from the vector; expressed in transfected cells; cDNA from the Missouri S&T cDNA Resource Center
T1 sequence (Q9UBY5 1-353): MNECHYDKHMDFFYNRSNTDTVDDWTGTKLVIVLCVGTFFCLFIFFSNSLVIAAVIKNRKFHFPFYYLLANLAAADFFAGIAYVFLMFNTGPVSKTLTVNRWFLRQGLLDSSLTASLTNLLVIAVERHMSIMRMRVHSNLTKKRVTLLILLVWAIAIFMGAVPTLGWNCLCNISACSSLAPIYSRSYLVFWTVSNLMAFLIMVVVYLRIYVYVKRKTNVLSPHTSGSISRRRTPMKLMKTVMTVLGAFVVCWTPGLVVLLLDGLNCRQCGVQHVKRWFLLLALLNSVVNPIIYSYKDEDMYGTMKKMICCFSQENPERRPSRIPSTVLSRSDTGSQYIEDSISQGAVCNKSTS
Method: A vector containing the human LPA3 receptor cDNA was obtained from the Missouri S&T cDNA Resource Center (www.cdna.org). The full-length cDNA fragment for human LPA3 was obtained by PCR from the vector. The nucleotide sequence of the cloned human LPA3 was determined by sequencing and confirmed to be identical to the published human LPA3 sequence (NCBI accession number NM_012152). The cDNA was cloned into the pcDNA5/FRT expression plasmid and transfected in CHO cells using lipofectamine 2000 (Invitrogen Corp., USA). Clones stably expressing human LPA3 were selected using hygromycin and identified as cells that show Ca-influx in response to LPA.
(§1) Human LPA1 or LPA3 expressing CHO cells are seeded at 20,000-45,000 cells per well in a 96-well poly-D-lysine coated plate one or two days before the assay. Prior to the assay, the cells are washed once with PBS and then cultured in serum-free media overnight. On the day of the assay, a calcium indicator dye (Calcium 4, Molecular Devices) in assay buffer (HBSS with Ca^2+and Mg^2+ and containing 20 mM Hepes and 0.3% fatty-acid free human serum albumin) is added to each well and incubation continued for 1 hour at 37° C. 10 μl of test compounds in 2.5% DMSO are added to the cells and incubation continued at room temperature for 30 minutes. Cells are the stimulated by the addition of 10 nM LPA and intracellular Ca^2+ measured using the Flexstation 3 (Molecular Devices). IC50s are determined using Graphpad prism analysis of drug titration curves.

Human LPA1 = biological target: T2, Human LPA1 (Homo sapiens, UniProt Q92633); assay: LPA1 calcium flux assay; assay type: cell-based; details: CHO cells expressing human LPA1, 10 nM LPA; read-out: HLPA1 Ca Flux IC50
T2 construct: the full-length cDNA for human LPA1 was obtained by PCR of the reverse transcription reaction; expressed in transfected cells
T2 sequence (Q92633 whole entry): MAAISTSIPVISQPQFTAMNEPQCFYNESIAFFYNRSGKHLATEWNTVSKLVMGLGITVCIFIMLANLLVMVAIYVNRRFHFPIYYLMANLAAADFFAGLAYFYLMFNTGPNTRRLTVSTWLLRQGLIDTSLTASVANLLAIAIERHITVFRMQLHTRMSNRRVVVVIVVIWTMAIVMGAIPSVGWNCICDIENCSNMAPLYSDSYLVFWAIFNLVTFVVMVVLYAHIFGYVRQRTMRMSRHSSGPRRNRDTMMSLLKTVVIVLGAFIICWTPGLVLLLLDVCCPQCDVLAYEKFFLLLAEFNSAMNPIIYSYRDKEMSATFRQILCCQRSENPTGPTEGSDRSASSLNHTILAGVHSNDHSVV
Method: A 1.1 kb cDNA encoding the human LPA1 receptor was cloned from human lung. Human lung RNA (Clontech Laboratories, Inc. USA) was reverse transcribed using the RETROscript kit (Ambion, Inc.) and the full-length cDNA for human LPA1 was obtained by PCR of the reverse transcription reaction. The nucleotide sequence of the cloned human LPA1 was determined by sequencing and confirmed to be identical to the published human LPA1 sequence (An et al. Biochem. Biophys. Res. Commun. 231:619 (1997). The cDNA was cloned into the pcDNA5/FRT expression plasmid and transfected in CHO cells using lipofectamine 2000 (Invitrogen Corp., USA). Clones stably expressing human LPA1 were selected using hygromycin and identified as cells that show Ca-influx in response to LPA.
as §1

For `COc1cccc([C@@H](C)OC(=O)Nc2c(C)noc2-c2ccc(-c3ccc(C4(C(=O)O)CC4)cc3)cc2)c1` [Compound 23, 1-(4′-{4-[(R)-1-(3-Methoxy-phenyl)-ethoxycarbonylamino]-3-methyl-isoxazol-5-yl}-biphenyl-4-yl)-cyclopropanecarboxylic acid], the IC50 (Human LPA3) was 1000 to 10000 nM and the IC50 (Human LPA1) was under 300 nM.

For `Cc1noc(-c2ccc(-c3ccc(C4(C(=O)O)CC4)cc3)cc2)c1NC(=O)OC(C)c1ccc(C(F)(F)F)cc1` (single isomer, unassigned) [Compound 14, 1-(4′-{3-Methyl-4-[1-(4-trifluoromethyl-phenyl)-ethoxycarbonylamino]-isoxazol-5-yl}-biphenyl-4-yl)-cyclopropanecarboxylic acid], the IC50 (Human LPA3) was 1000 to 10000 nM and the IC50 (Human LPA1) was under 300 nM.

`Cc1noc(-c2ccc(-c3ccc(C4(C(=O)O)CC4)cc3)cc2)c1NC(=O)OC(C)c1ccc(C(F)(F)F)cc1` (single isomer, unassigned) [Compound 13, 1-(4′-{3-Methyl-4-[1-(4-trifluoromethyl-phenyl)-ethoxycarbonylamino]-isoxazol-5-yl}-biphenyl-4-yl)-cyclopropanecarboxylic acid] gave an IC50 (Human LPA1) of 1000 to 10000 nM.

With `CCc1noc(-c2ccc(-c3ccc(C4(C(=O)O)CC4)cc3)cc2)c1NC(=O)O[C@H](C)c1cccc(C(F)(F)F)c1` [Compound 30, 1-(4′-{3-Ethyl-4-[(R)-1-(3-trifluoromethyl-phenyl)-ethoxycarbonylamino]-isoxazol-5-yl}-biphenyl-4-yl)-cyclopropanecarboxylic acid] the IC50 (Human LPA3) was under 300 nM and the IC50 (Human LPA1) was under 300 nM.

With `Cc1noc(-c2ccc(-c3ccc(C4(C(=O)NS(C)(=O)=O)CC4)cc3)cc2)c1NC(=O)O[C@H](C)c1cccc(C(F)(F)F)c1` [Compound 40, {5-[4′-(1-Methanesulfonylaminocarbonyl-cyclopropyl)-biphenyl-4-yl]-3-methyl-isoxazol-4-yl}-carbamic acid (R)-1-(3-trifluoromethyl-phenyl)-ethyl ester] the IC50 (Human LPA3) was 300 to 1000 nM and the IC50 (Human LPA1) was under 300 nM.

In the case of `Cc1noc(-c2ccc(-c3ccc(C4(C(=O)O)CC4)cc3)cc2)c1NC(=O)O[C@@H](C)c1ccccc1` [Compound 27, 1-{4′-[3-Methyl-4-((S)-1-phenyl-ethoxycarbonylamino)-isoxazol-5-yl]-biphenyl-4-yl}-cyclopropanecarboxylic acid], the IC50 (Human LPA3) is reported as over 10000 nM and the IC50 (Human LPA1) is reported as under 300 nM.

`Cc1noc(-c2ccc(-c3ccc(C4(C(=O)O)CC4)cc3)cc2)c1NC(=O)O[C@H](C)c1cc(Br)cc(Br)c1` [Compound 32, 1-(4′-{4-[(R)-1-(3,5-Dibromo-phenyl)-ethoxycarbonylamino]-3-methyl-isoxazol-5-yl}-biphenyl-4-yl)-cyclopropanecarboxylic acid] was tested, and the IC50 (Human LPA3) was 1000 to 10000 nM and the IC50 (Human LPA1) was under 300 nM.

In the case of `Cc1noc(-c2ccc(-c3ccc(C4(C(=O)O)CCCC4)cc3)cc2)c1NC(=O)O[C@H](C)c1ccccc1` [Compound 11, 1-{4′-[3-Methyl-4-((R)-1-phenyl-ethoxycarbonylamino)-isoxazol-5-yl]-biphenyl-4-yl}-cyclopentanecarboxylic acid], the IC50 (Human LPA3) is reported as 1000 to 10000 nM and the IC50 (Human LPA1) is reported as under 300 nM.

With `Cc1noc(-c2ccc(-c3ccc(C4(C(=O)O)CC4)cc3)cc2)c1NC(=O)O[C@H](C)c1cccc(C(F)(F)F)c1` [Compound 22, 1-(4′-{3-Methyl-4-[(R)-1-(3-trifluoromethyl-phenyl)-ethoxycarbonylamino]-isoxazol-5-yl}-biphenyl-4-yl)-cyclopropanecarboxylic acid] the IC50 (Human LPA3) was under 300 nM and the IC50 (Human LPA1) was under 300 nM.

In the case of `Cc1noc(-c2ccc(-c3ccc(C4(C(=O)O)CC4)cc3)cc2)c1NC(=O)O[C@@H](C)C1CC1` (single isomer, unassigned) [Compound 5], the IC50 (Human LPA1) is reported as 1000 to 10000 nM.

`COc1ccccc1C(C)OC(=O)Nc1c(C)noc1-c1ccc(-c2ccc(C3(C(=O)O)CC3)cc2)cc1` (stereo not shown) [Compound 12, 1-(4′-{4-[1-(2-Methoxy-phenyl)-ethoxycarbonylamino]-3-methyl-isoxazol-5-yl}-biphenyl-4-yl)-cyclopropanecarboxylic acid] was tested, and the IC50 (Human LPA1) was under 300 nM.
